Assay results from US9918963B2, “Therapeutic agent for disease based on inhibitory effect of macrophage migration inhibitory factor” (TOYAMA CHEMICAL CO., LTD., priority 2013, dated 2018).

Target: T1, MIF (Homo sapiens, UniProt P14174)
T1 construct: (catalogue number not given); host or cells: E. coli BL21 Star (DE3)
T1 sequence (P14174 2-115 limits assumed): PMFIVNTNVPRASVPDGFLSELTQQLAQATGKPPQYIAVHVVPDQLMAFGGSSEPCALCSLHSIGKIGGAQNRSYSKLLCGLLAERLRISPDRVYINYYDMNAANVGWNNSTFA
Assay: Confirmation of the binding of Compound A and MIF (compound beads pull-down from THP-1 cell lysate, Western blotting)
Settings: elution with 0.5 mmol/L Compound A, anti-MIF Western blotting
Protocol: THP-1 cells were cultured for about 6 hours in PRMI 1640 medium containing 1% fetal bovine serum and 50 μmol/L 2-mercaptoethanol. Then, lipopolysaccharide (E. coli 0127:B8, Sigma Aldrich) was added to the culture plate at a final concentration of 1 μg/mL, and the cells were cultured for about 30 minutes. The cells were harvested and washed with phosphate buffered saline, and mixed with about 2-fold volume of cell lysis buffer (20 mmol/L Tris, 150 mmol/L sodium chloride, 1 mmol/L magnesium chloride, 0.1% NP-40, 1 mmol/L dithiothreitol, 0.1% Triton X-100, pH 7.4). The resultant mixture was placed on ice with occasional stirring for about 30 minutes, and was centrifuged (20000×g, 4° C., 8 minutes). The separated and gained supernatant was used as cell lysate. Protein concentration of the cell lysate was measured with BCA protein assay reagent (Thermo Fisher Scientific K.K.) in accordance with its manual.
Immobilization of 4-amino-N-[7-[(methylsulfonyl)amino]-4-oxo-6-phenoxy-4H-1-benzopyran-3-yl]butanamide hydrochloride on Dynabeads M-270 Carboxylic Acid (Life Technologies Corporation) was performed by a general method. […]

CS(=O)(=O)Nc1cc2occ(NC=O)c(=O)c2cc1Oc1ccccc1 [Compound A, N-[7-[(methylsulfonyl)amino]-4-oxo-6-phenoxy-4H-1-benzopyran-3-yl]formamide]
Binding of MIF to Compound A: specifically binds
